These results are taken from patent US11965894B2, “Method of diagnosis of drug induced liver injury” (BIOPREDICTIVE, priority 2017, dated 2024).

A short description of data set [1]: Serum miR-122 by LNA-based relative quantitative PCR in DILI cases. The data set is classed as in vivo, human. On the procedure: Total RNA, including miRNA was extracted from 200 μl of serum, using a commercial column-based system (Exiqon, Denmark) following the manufacturer's instructions. RNA synthetic control templates (Exiqon, Denmark) were introduced to provide controls for the quality of the RNA isolation. Serum levels of miR-122 and nine endogenous miRNAs as potential candidates for reference miRNAs were assayed using the Locked Nucleic Acid (LNA™)-based miRNA relative quantitative PCR with a SYBR® Green detection. cDNA synthesis and real time PCR were performed using the miRCURY LNA™ Universal RT cDNA Synthesis Kit (Exiqon, Denmark) and miRCURY LNA™ Universal RT microRNA PCR system (Exiqon), respectively. Two additional RNA spike-ins were also introduced to provide controls for the cDNA synthesis reaction and the PCR. Quantitative PCR was done on the LightCycler® 480 (Roche Applied Science) according to the manufacturer's instructions. The amplification curves were analyzed using the Roche LC software, both for the determination of cycle threshold (Ct) and for melting curve analysis. Ct values were then processed using the analysis software GenEx® (MultiD Analysis AB). […] Ct values for miR-122 were normalized with Ct value of miR-23a-3p. Levels of serum miR-122 were expressed in relative quantities calculated by the equation 2^−ΔCt.

For data set [2] the following is noted: healthy volunteers receiving the drug, ref [13]; cited from earlier work.
The nature of data set [3]: FibroTest and ActiTest scores in DILI cases. In kind it is in vivo, human. The settings on record: for FibroTest: single followed DILI case. On the procedure: The Fibrotest® combines five markers: alpha2-macroglobulin, haptoglobin, apolipoprotein A2, total bilirubin and gamma-glutamyl transpeptidase (GGT), and adjusts with sex and age. […] It is performed in vitro on a biological sample (blood or serum) that has been harvested from a patient.
The ActiTest is calculated using an original combination of six highly concentrated biochemical markers, which are easy to assess. The ActiTest offers a non invasive alternative for measuring necro inflammatory activity in patients with chronic hepatitis C or B. The ActiTest combines alpha2-macroglobulin, haptoglobin, apolipoprotein A1, total bilirubin, GGT, and ALT, parameters adjusted for patient's age and gender.

For data set [4] the following is noted: in vivo. On the procedure:
Measures of biochemical markers were performed accordingly to the art, and analyses of ActiTest® and FibroTest® were made as described in the art and in WO 2002/016949.
Comparisons between medians (95% confidence interval [CI]) used the Mann-Whitney test with Bonferroni correction, and the Tukey-Kramer multiple comparison procedure for analyses of variance of the three repeated measures. Correlation between test values was estimated using the Pearson coefficient, expressed with a 95% CI; according to the number of comparisons, only a P value <0.01 was considered significant. NCSS-9 software was used.

Where [5] appears, read: DILI cases attributed to the drug, at inclusion.

As for `CC(=O)Nc1ccc(O)cc1` [APAP, acetaminophen], the “miR-122 compared with MTX cases” value in data set [1] (DILI cases, at baseline) was “significantly lower”. Further, the “miR-122 (lowest)” value in data set [1] (single DILI case with severe malnutrition) was −0.8. The “ApoA1 regulation in ALT responders compared with ALT non-responders” value in data set [2] is on record as “three-fold down-regulation”. Also, the ActiTest median in data set [3] (setting [5]) amounted to 0.99. Also, the “FibroTest” value in data set [3] (at 8-12 weeks) came to 0.53; in data set [3] (one month later), 0.47.
Take `CCOC(=O)Nc1ccc(NCc2ccc(F)cc2)nc1N` [flupirtine]: the FibroTest median in data set [3] (setting [5]) stood at 0.99. Moreover, in data set [4], the “ApoA1 compared with normal ranges observed with methotrexate and others” value is listed as “dramatic decrease”; the “ApoA1 evolution compared with HAPTO” value is “much quicker normalization”; the ApoA1 median worked out at 0.27 g/L; the “BILI compared with normal ranges observed with methotrexate and others” value is on record as “dramatic increase”. Further, in data set [4], the BILI median came to 335 µmol/L; the “HAPTO compared with normal ranges observed with methotrexate and others” value is reported as “dramatic decrease”; the HAPTO median is 0.10 g/L.
`CN(Cc1cnc2nc(N)nc(N)c2n1)c1ccc(C(=O)N[C@@H](CCC(=O)O)C(=O)O)cc1` [methotrexate] registered a miR-122 median in data set [1] (serum, DILI cases attributed to the drug, at inclusion, relative quantities normalized with miR-23a-3p) of 7.54. Further, the “FibroTest” value in data set [3] (877 days later) is 0.52; in data set [3] (at 8-12 weeks), 0.51. Further, the “GGT dynamics compared with other drugs” value in data set [4] is reported as “no decrease”.
As to `CCN1CCN(C(=O)N[C@@H](C(=O)N[C@@H]2C(=O)N3[C@@H]2SC(C)(C)[C@@H]3C(=O)O)c2ccccc2)C(=O)C1=O` [piperacillin, piperacillin-tazobactam], the GGT median in data set [4] stood at 678 IU/L.
